From patent publication US4883807A, “1,2,5,6-tetrahydropyridyl triazoles and tetrazoles useful as fungicides” (Imperial Chemical Industries PLC, priority 1986, dated 1989) come the findings set out here.

Each structure is given as a SMILES string. Where only a bound is given, the exact number is not on record here.

One experiment relates to Phytophthora infestans. It is filed as in vivo. The settings on record: 100 ppm foliar spray plus root drench ca. 40 ppm a.i./dry soil, one or two days before inoculation.
For another experiment, the system named is Pyricularia oryzae. It is filed as in vivo. The note with it: 100 ppm foliar spray plus root drench ca. 40 ppm a.i./dry soil, one or two days before inoculation.
For experiment [1], the system named is Tetranychus urticae (spider mites - adult). Put plainly: whole plant or invertebrate. The settings on record: in Phaseolus vulgaris, 72 h, read-out: grading of mortality, TUa.
The subject of the next experiment is Meloidogyne incognita. The experiment is described as follows: nematode test, tomato root knot eelworm - larvae, semi in-vitro. It is filed as in vivo. The settings on record: 250 ppm, residual, 7 days. The procedure: (§1) The activity of the compounds was determined using a variety of insect, mite and nematode pests. The compounds were used in the form of liquid preparations containing 500 parts per million (ppm) by weight of the compound except for the test on Meloidogyne incognita when liquid preparations of 250 ppm by weight were used. The preparations were made by dissolving the compounds in acetone and diluting the solutions with water containing 0.1% by weight of a wetting agent sold under the trade name "SYNPERONIC" NX until the liquid preparations contained the required concentration of the product. "SYNPERONIC" is a Registered Trade Mark.
(§2) The test procedure adopted with regard to each pest was basically the same and comprised supporting a number of the pests on a medium which was usually a host plant or a foodstuff on which the pests feed, and treating either or both the pests and the medium with the preparations. The mortality of the pests was then assessed at periods usually varying from one to seven days after the treatment.
(§3) The results of the tests are given in Table IX for each of the products as a grading of mortality designated as 9, 5 or 0 where 9 indicates 80-100% mortality (70-100% root-knot reduction as compared with untreated plants for Meloidogyne incognita), 5 indicates 50-79% mortality (50-69% root knot reduction for Meloidogyne incognita) and 0 indicates less than 50% mortality (root-knot reduction for Meloidogyne incognita).
(§4) In Table IX the pest organism used in designated by a letter code and the pests species, the support medium or food, and the type and duration of test is given in Table VII.

For experiment [2], the system named is Tetranyhus urticae (spider mites - ova). The experiment is described as follows: whole plant or invertebrate. The note with it: 144 h, read-out: grading of mortality, TUe.
The next experiment concerns Blattella germanica. Put plainly: whole plant or invertebrate. The settings on record: 72 h, read-out: grading of mortality, BG.
The subject of another experiment is Plasmopara viticola. Put plainly: foliar fungal disease control on plants, Plasmopara viticola on vine. It is filed as in vivo. The note with it: 100 ppm foliar spray plus root drench ca. 40 ppm a.i./dry soil, one or two days before inoculation. Here is the method: (§5) The technique employed was as follows.
(§6) The plants were grown in John Innes Potting Compost (No. 1 or 2) in 4 cm diameter minipots. The test compounds were formulated either by bead milling with aqueous Dispersol T or as a solution in acetone or acetone/ethanol which was diluted to the required concentration immediately before use. For the foliage diseases, the formulations (100 ppm active ingredient) were sprayed on to the foliage and applied to the roots of the plants in the soil. The sprays were applied to maximum retention and the root drenches to a final concentration equivalent to approximately 40 ppm a.i./dry soil. Tween 20, to give a final concentration of 0.05%, was added when the sprays were applied to cereals.
(§7) For most of the tests the compound was applied to the soil (roots) and to the foliage (by spraying) one or two days before the plant was inoculated with the disease. An exception was the test on Erysiphe graminis in which the plants were inoculated 24 hours before treatment. Foliar pathogens were applied by spray as spore suspensions onto the leaves of test plants. After inoculation, the plants were put into an appropriate environment to allow infection to proceed and then incubated until the disease was ready for assessment. The period between inoculation and assessment varied from four to fourteen days according to the disease and environment.
(§8) The disease control was recorded by the following grading: […]

The next experiment concerns Venturia inaequalis. Put plainly: foliar fungal disease control on plants, Venturia inaequalis on apple. It is filed as in vivo. The settings on record: 100 ppm foliar spray plus root drench ca. 40 ppm a.i./dry soil, one or two days before inoculation. Here is the method:
as §5, §6, §7, §8

The test system of the next experiment is Puccinia recondita. The experiment is described as follows: foliar fungal disease control on plants, Puccinia recondita on wheat. It is filed as in vivo. The note with it: 100 ppm foliar spray plus root drench ca. 40 ppm a.i./dry soil, one or two days before inoculation. The procedure:
as §5, §6, §7, §8

In a further experiment the test system is Erysiphe graminis. Put plainly: foliar fungal disease control on plants, Erysiphe graminis on barley. It is filed as in vivo. The settings on record: 100 ppm foliar spray plus root drench ca. 40 ppm a.i./dry soil; inoculated 24 hours before treatment. The procedure: as §5, §6, §7, §8
Another experiment has as its system Musca domestica. The experiment is described as follows: whole plant or invertebrate. The settings on record: 24 h, read-out: grading of mortality, MD.
The next experiment has as its system Nephotettix cincticeps. The experiment is described as follows: whole plant or invertebrate. The settings on record: in Oryza sativa, 72 h, read-out: grading of mortality, NC.
The next experiment concerns Cercospora arachidicola. The experiment is described as follows: foliar fungal disease control on plants, Cercospora arachidicola on peanut. It is filed as in vivo. The note with it: 100 ppm foliar spray plus root drench ca. 40 ppm a.i./dry soil, one or two days before inoculation. Here is the method:
as §5, §6, §7, §8

In the next experiment the test system is Myzus persicae. Put plainly: whole plant or invertebrate. The settings on record: in Brassica rapa, 72 h, read-out: grading of mortality, MP.
A further experiment concerns Heliothis virescens. The experiment is described as follows: insecticidal test, tobacco budworm - larvae. It is filed as in vivo. The note with it: in Gossypium hirsutum, 72 h, read-out: grading of mortality, HV. The procedure:
as §1, §2, §3, §4

A further experiment relates to Diabrotica balteata. Put plainly: whole plant or invertebrate. The note with it: in Zea mays, 72 h, read-out: grading of mortality, DB.

Consider `CO/C=C(/C(=O)OC)n1cccc1/C=C/C(=O)OC`, for which the “disease control grading, PH[…] (TOMATOES)” value in the experiment on Phytophthora infestans was found to be 4. The “disease control grading, P[…] (Rice)” value in the experiment with Pyricularia oryzae came to 4. The mortality (usually the percentage killed) at 500 ppm is 80 to 100% in experiment [1]; below 50% in experiment [2]; 80 to 100% in the experiment on Blattella germanica; below 50% in the experiment on Musca domestica; 50 to 79% in the experiment on Nephotettix cincticeps; below 50% in the experiment with Myzus persicae. Besides, the mortality at 500 ppm in the experiment with Heliothis virescens and in the experiment with Diabrotica balteata was below 50% throughout. In addition, the “grading of root-knot reduction, MI” value in the experiment with Meloidogyne incognita is listed as 0 (less than 50% mortality (root-knot reduction for Meloidogyne incognita)). Moreover, in the experiment on Plasmopara viticola, the “disease control grading, […] (Vine)” value is reported as 4. Further, the “disease control grading, VENTURIA INAEQUALIS (Apple)” value with Venturia inaequalis stood at 4. In addition, the “disease control grading, PUCCINIA RECONDITA (Wheat)” value in the experiment on Puccinia recondita came out at 4. Further, the “disease control grading, ERYSIPHE GRAMINIS (Barley)” value in the experiment with Erysiphe graminis is 4. Also, the “disease control grading, CERCOSPCRA ARACHIDICOLA (Peanut)” value in the experiment with Cercospora arachidicola is given as 2 (6-25% of disease on untreated plants).
